Experimental data reported in patent US12215111B2, “Imidazopyridazine IL-17 inhibitor compounds” (Janssen Pharmaceutica NV, priority 2021, dated 2025).

What follows are compounds tested against IL-17A(FLAG-Tagged): IL-17RA(His-Tagged) (Homo sapiens, UniProt Q16552, K93Q) (assay: IL-17A(FLAG-tagged):IL-17RA(His-tagged) binding disruption Eu-HTRF assay, Protocol 1). Conditions: FLAG tagged IL-17A at 2× final concentration (2.5 nM); simple average if tested more than once.
Excerpt: IL-17A(FLAG-Tagged): IL-17RA(His-Tagged) Binding Disruption Eu-HTRF Assay
An antibody directed against the FLAG tag of IL-17A (SEQ ID NO:1) is labeled with the HTRF donor chromophore (Europium-cryptate). IL-17A is present as a dimer that is “locked into” this quaternary structure due to the formation of loop-spanning […] disulfide bridges. The construct of IL-17RA used in the assay excludes the outer-membrane portion of the receptor and is fused to a C-terminal 10×His tag (SEQ ID NO:2). An antibody directed against the His tag of the IL-17RA chimera is labeled with the HTRF acceptor chromophore (“D2”). The fluorescence-resonance energy transfer (FRET) depends on the vicinity of the donor chromophore to the acceptor, and interruption of the binding between the IL-17A and IL-17RA causes the reduction/loss of FRET. Therefore, this assay allows to evaluate the compound effect on the binding IL-17A and IL-17RA by monitoring the fluorescence intensity of donor vs acceptor. The assay was run using either Protocol 1 or Protocol 2 described below.
Protocol 1: 40 nL of 2-fold serial diluted compound solution for total 22 dilution points is added into each well of a 1536-well, white, low-volume, non-binding plate (Greiner #782904), then 2 μl of FLAG tagged IL-17A at 2× final concentration (2.5 nM) in solution of PBS+0.01% Triton-X100 is added to each well. The assay plate is briefly centrifuged then incubated for 1 h at rt. A mixed solution is prepared containing 2×5 nM 10HIS×IL-17RA, 2×2.5 nM Eu-anti-FLAG (CISBIO), 2×5 nM D2-anti-HIS (CISBIO) in PBS+0.01% Triton-X100+200 mM Potassium Fluoride (Sigma 60238) and […] of mix is added to each well of the assay plate. The plate is briefly centrifuged then incubated for 2 h at rt. The HTRF intensities at the wavelength of donor (620 nm) and acceptor (665 nm) are measured using BMG Pherastar. The ratio between intensities at two wavelengths is calculated and plotted against the compound concentration and the data is fitted to a one-site competition model to yield IC50 of the compound.

UniProt Q16552, sequence (Q16552 with tags, fused parts or gaps K93Q): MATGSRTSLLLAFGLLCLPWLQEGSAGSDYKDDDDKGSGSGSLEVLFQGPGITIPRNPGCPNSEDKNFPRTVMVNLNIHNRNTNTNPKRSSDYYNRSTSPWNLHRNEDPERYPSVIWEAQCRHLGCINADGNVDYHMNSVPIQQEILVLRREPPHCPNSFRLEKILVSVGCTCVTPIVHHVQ

| IC50 | Compound |
| --- | --- |
| < 4 µM | COC[C@H](c1cnn2cc([C@H](COC(C)(C)C(F)(F)F)NC(=O)[C@H]3C[C@@H]3C(F)(F)F)nc2c1)N1C[C@@H](C(F)(F)F)NC1=O (relative stereo) [Example 33, (1S*,2S*)—N—((R)-1-(7-((S)-2-Methoxy-1-((S)-2-oxo-4-(trifluoromethyl)imidazolidin-1-yl)ethyl)imidazo[1,2-b]pyridazin-2-yl)-2-(1,1,1-trifluoro-2-methylpropan-2-yl)oxy)ethyl)-2-(trifluoromethyl)cyclopropane-1-carboxamide] |
| < 4 µM | O=C(N[C@H](c1cn2ncc(CN3C(=O)N[C@H]4CC(F)(F)C[C@H]43)cc2n1)C1CCC(F)(F)CC1)c1nonc1C1CC1 (single isomer, unassigned) [Example 8, 4-Cyclopropyl-N—((S)-(7-(((3aS*,6aR*)-5,5-difluoro-2-oxohexahydrocyclopenta[d]imidazol-1(2H)-yl)methyl)imidazo[1,2-b]pyridazin-2-yl)(4,4-difluorocyclohexyl)methyl)-1,2,5-oxadiazole-3-carboxamide] |

What follows are compounds tested on IL-17A-induced G-CSF production in human normal keratinocyte (NHK) (assay: NHK assay: IL-17A-induced G-CSF production in normal human keratinocytes). Conditions: Homo sapiens, Keratinocyte; IL-17A 5 ng/mL, 24 h at 37° C., G-CSF by HTRF; simple average if tested more than once.
Type: cell-based
Description: IL-17A acts directly on keratinocytes through binding to dimeric receptor IL-17RA/RC and drives the production of a number of inflammatory mediators known to be elevated in psoriasis lesional tissue. IL-17A small molecule inhibitors that block the IL-17A to interact with IL-17R would inhibit the IL-17A signaling in its targeted cells such as keratinocytes. The compound functional activity is evaluated for its impact on IL-17A-induced G-CSF production in human normal keratinocyte (NHK).
Adult normal human keratinocytes are cultured in keratinocyte growth medium (Lonza) in a flask till reaching ˜90% confluence, then cells are transferred to a 384-well plate at density of 3000-4000 cell/well. Recombinant human IL-17A (Gibco PHC9174) is pre-incubated with titrated compound or DMSO for 1 h at rt then added to the cell culture plate. The final concentration of IL-17A is 5 ng/mL and DMSO is 0.2%, in the culture containing 5% FBS. Cells are cultured/treated for 24 h at 37° C. Supernatants are collected and G-CSF production is measured through HTRF technology using Human G-CSF Kit (CisBio). G-CSF concentration was extrapolated from the standard curve and IC50 is determined using GraphPad Prism. Cell viability is also evaluated using CellTiter-Glo kit (Promega) and effect of compound on cell viability is compared to DMSO control.

| Compound | IC50 |
| --- | --- |
| [2H]C1([2H])[C@@H](C(F)(F)F)NC(=O)N1[C@H](COC)c1cnn2cc([C@H](COC(C)(C)C(F)(F)F)NC(=O)c3nonc3C3CC3)nc2c1 (relative stereo) [Example 16, 4-Cyclopropyl-N—((R)-1-(7-((S)-2-methoxy-1-((S*)-2-oxo-4-(trifluoromethyl)imidazolidin-1-yl-5,5-d2)ethyl)imidazo[1,2-b]pyridazin-2-yl)-2-(1,1,1-trifluoro-2-methylpropan-2-yl)oxy)ethyl)-1,2,5-oxadiazole-3-carboxamide] | < 4 µM |
| COC[C@H](c1cnn2cc([C@H](COC(C)(C)C(F)(F)F)NC(=O)[C@@H]3C[C@H]3C(F)(F)F)nc2c1)N1C[C@@H](C(F)(F)F)NC1=O (relative stereo) [Example 32, (1R*,2R*)—N—((R)-1-(7-((S)-2-Methoxy-((S)-2-oxo-4-(trifluoromethyl)imidazolidin-1-yl)ethyl)imidazo[1,2-b]pyridazin-2-yl)-2-(1,1,1-trifluoro-2-methylpropan-2-yl)oxy)ethyl)-2-(trifluoromethyl)cyclopropane-1-carboxamide] | < 4 µM |
| COC[C@H](c1cnn2cc([C@H](COC(C)(C)C(F)(F)F)NC(=O)[C@H]3C[C@@H]3C(F)(F)F)nc2c1)N1C[C@@H](C(F)(F)F)NC1=O (relative stereo) [Example 33, (1S*,2S*)—N—((R)-1-(7-((S)-2-Methoxy-1-((S)-2-oxo-4-(trifluoromethyl)imidazolidin-1-yl)ethyl)imidazo[1,2-b]pyridazin-2-yl)-2-(1,1,1-trifluoro-2-methylpropan-2-yl)oxy)ethyl)-2-(trifluoromethyl)cyclopropane-1-carboxamide] | < 4 µM |
| O=C(N[C@H](c1cn2ncc(CN3C(=O)N[C@H]4CC(F)(F)C[C@H]43)cc2n1)C1CCC(F)(F)CC1)c1nonc1C1CC1 (single isomer, unassigned) [Example 8, 4-Cyclopropyl-N—((S)-(7-(((3aS*,6aR*)-5,5-difluoro-2-oxohexahydrocyclopenta[d]imidazol-1(2H)-yl)methyl)imidazo[1,2-b]pyridazin-2-yl)(4,4-difluorocyclohexyl)methyl)-1,2,5-oxadiazole-3-carboxamide] | < 4 µM |
| COC[C@H](c1cnn2cc([C@H](COC(C)(C)C(F)(F)F)NC(=O)c3nonc3C)nc2c1)N1C[C@@](C)(C(F)(F)F)NC1=O (single isomer, unassigned) [Example 30] | < 4 µM |
| CC(C)n1nccc1C(=O)N[C@H](c1cn2ncc([C@H](COC3CC3)N3C[C@@H](C(F)(F)F)NC3=O)cc2n1)C1CCC(F)(F)CC1 (single isomer, unassigned) [Example 44] | < 4 µM |
| [2H]C1([2H])N([C@H](COC)c2cnn3cc([C@H](COC(C)(C)C(F)(F)F)NC(=O)c4nonc4C4CC4)nc3c2)C(=O)NC1([2H])C(F)(F)F (stereo in doubt) [Example 34, 4-Cyclopropyl-N—((R)-1-(7-((S)-2-methoxy-1-((R)-2-oxo-4-(trifluoromethyl)imidazolidin-1-yl-4,5,5-d3)ethyl)imidazo[1,2-b]pyridazin-2-yl)-2-((1,1,1-trifluoro-2-methylpropan-2-yl)oxy)ethyl)-1,2,5-oxadiazole-3-carboxamide] | < 4 µM |
| [2H]C1([2H])N([C@H](COC)c2cnn3cc([C@H](COC(C)(C)C(F)(F)F)NC(=O)c4nonc4C)nc3c2)C(=O)NC1([2H])C(F)(F)F (stereo in doubt) [Example 35, N—((R)-1-(7-((S)-2-Methoxy-1-((R)-2-oxo-4-(trifluoromethyl)imidazolidin-1-yl-4,5,5-d3)ethyl)imidazo[1,2-b]pyridazin-2-yl)-2-((1,1,1-trifluoro-2-methylpropan-2-yl)oxy)ethyl)-4-methyl-1,2,5-oxadiazole-3-carboxamide] | < 4 µM |
| COC[C@H](c1cnn2cc([C@H](CC(C)(C)C(F)(F)F)NC(=O)c3nonc3C3CC3)nc2c1)N1C[C@@H](C(F)(F)F)NC1=O [Example 13, 4-Cyclopropyl-N—((S)-4,4,4-trifluoro-1-(7-((S)-2-methoxy-1-((S)-2-oxo-4-(trifluoromethyl)imidazolidin-1-yl)ethyl)imidazo[1,2-b]pyridazin-2-yl)-3,3-dimethylbutyl)-1,2,5-oxadiazole-3-carboxamide] | < 4 µM |
| COC[C@H](c1cnn2cc([C@H](CC(C)(C)C(F)(F)F)NC(=O)c3nonc3C)nc2c1)N1C[C@@H](C(F)(F)F)NC1=O [Example 14, 4-Methyl-N—((S)-4,4,4-trifluoro-1-(7-((S)-2-methoxy-1-((S)-2-oxo-4-(trifluoromethyl)imidazolidin-1-yl)ethyl)imidazo[1,2-b]pyridazin-2-yl)-3,3-dimethylbutyl)-1,2,5-oxadiazole-3-carboxamide] | < 4 µM |
| COC[C@H](c1cnn2cc([C@H](CC(C)(C)C(F)(F)F)NC(=O)c3ccnn3C(C)C)nc2c1)N1C[C@@H](C(F)(F)F)NC1=O [Example 15, 1-Isopropyl-N—((S)-4,4,4-trifluoro-1-(7-((S)-2-methoxy-((S)-2-oxo-4-(trifluoromethyl)imidazolidin-1-yl)ethyl)imidazo[1,2-b]pyridazin-2-yl)-3,3-dimethylbutyl)-1H-pyrazole-5-carboxamide] | < 4 µM |
| Cc1nonc1C(=O)N[C@H](c1cn2ncc([C@@H](C3CC3)N3CC4(CC4)NC3=O)cc2n1)C1CCC(F)(F)CC1 [Example 21, N—[(S)—[7-[(R)-Cyclopropyl-(6-oxo-5,7-diazaspiro[2.4]heptan-5-yl)methyl]imidazo[1,2-b]pyridazin-2-yl]-(4,4-difluorocyclohexyl)methyl]-4-methyl-1,2,5-oxadiazole-3-carboxamide] | < 4 µM |
| CC(C)(OC[C@H](NC(=O)c1nonc1C1CC1)c1cn2ncc(CN3C[C@@H](C(F)(F)F)NC3=O)cc2n1)C(F)(F)F [Example 24] | < 4 µM |
| Cc1nonc1C(=O)N[C@H](c1cn2ncc(CN3C[C@@](C)(C(F)(F)F)NC3=O)cc2n1)C1CCC(F)(F)CC1 [Example 28, N—((S)—(4,4-Difluorocyclohexyl)(7-(((S)-4-methyl-2-oxo-4-(trifluoromethyl)imidazolidin-1-yl)methyl)imidazo[1,2-b]pyridazin-2-yl)methyl)-4-methyl-1,2,5-oxadiazole-3-carboxamide] | < 4 µM |
| C[C@@]1(C(F)(F)F)CN(Cc2cnn3cc([C@@H](NC(=O)c4nonc4C4CC4)C4CCC(F)(F)CC4)nc3c2)C(=O)N1 [Example 29] | < 4 µM |
| Cc1nonc1C(=O)N[C@@H](CCC(C)(C)C(F)(F)F)c1cn2ncc([C@@H](COC3CC3)N3C[C@@H](C(F)(F)F)NC3=O)cc2n1 [Example 38, N—((S)-1-(7-((S)-2-Cyclopropoxy-((S)-2-oxo-4-(trifluoromethyl)imidazolidin-1-yl)ethyl)imidazo[1,2-b]pyridazin-2-yl)-5,5,5-trifluoro-4,4-dimethylpentyl)-4-methyl-1,2,5-oxadiazole-3-carboxamide] | < 4 µM |
| CC(C)(CC[C@H](NC(=O)c1nonc1C1CC1)c1cn2ncc([C@@H](COC3CC3)N3C[C@@H](C(F)(F)F)NC3=O)cc2n1)C(F)(F)F [Example 39, N—((S)-1-(7-((S)-2-Cyclopropoxy-((S)-2-oxo-4-(trifluoromethyl)imidazolidin-1-yl)ethyl)imidazo[1,2-b]pyridazin-2-yl)-5,5,5-trifluoro-4,4-dimethylpentyl)-4-cyclopropyl-1,2,5-oxadiazole-3-carboxamide] | < 4 µM |
